Data: ChEMBL document CHEMBL5576065, “Identification of highly potent and selective HTRA1 inhibitors” (Bioorg Med Chem Lett, 2024)
Active and inactive are the calls of the source. The rule behind the calls is not given here. Square brackets hold non-standard residues; d marks the D form. Peptide text beside a SMILES is read from it. * marks the point of attachment. hMet = CSCCC[C@H](N)C(=O)O; X1 = CC(C)[C@H](N*)B(O)O

Experiments:
Serine protease HTRA1 [1] = biological target: T1, Serine protease HTRA1 (Homo sapiens, UniProt Q92743); test: Inhibition of HTRA1 (unknown origin)
[2] = biological target: Chymotrypsin (Homo sapiens) (UniProt Q99895+P17538+P40313+Q6GPI1); test: Inhibition of chymotrypsin (unknown origin) at 1 uM; assay type: protein assay
[3] = biological target: Kallikrein-7 (Homo sapiens) (UniProt P49862); test: Inhibition of kallikrein-7 (unknown origin) at 1 uM
Caspase-6 (Homo sapiens) = biological target: T2, Caspase-6 (Homo sapiens) (UniProt P55212); test: Inhibition of Caspase-6 (unknown origin) at 1 uM
T2 sequence (whole entry): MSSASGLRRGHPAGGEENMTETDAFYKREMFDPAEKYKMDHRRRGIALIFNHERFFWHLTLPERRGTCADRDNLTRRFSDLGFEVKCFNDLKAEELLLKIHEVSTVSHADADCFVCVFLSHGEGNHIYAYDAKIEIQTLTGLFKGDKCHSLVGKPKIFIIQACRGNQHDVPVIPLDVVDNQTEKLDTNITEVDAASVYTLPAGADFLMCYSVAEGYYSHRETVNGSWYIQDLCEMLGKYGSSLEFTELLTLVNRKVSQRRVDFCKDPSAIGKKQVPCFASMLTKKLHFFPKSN

Caspase-9 (Homo sapiens) = biological target: T3, Caspase-9 (Homo sapiens) (UniProt P55211); test: Inhibition of Caspase-9 (unknown origin) at 1 uM
T3 sequence (whole entry): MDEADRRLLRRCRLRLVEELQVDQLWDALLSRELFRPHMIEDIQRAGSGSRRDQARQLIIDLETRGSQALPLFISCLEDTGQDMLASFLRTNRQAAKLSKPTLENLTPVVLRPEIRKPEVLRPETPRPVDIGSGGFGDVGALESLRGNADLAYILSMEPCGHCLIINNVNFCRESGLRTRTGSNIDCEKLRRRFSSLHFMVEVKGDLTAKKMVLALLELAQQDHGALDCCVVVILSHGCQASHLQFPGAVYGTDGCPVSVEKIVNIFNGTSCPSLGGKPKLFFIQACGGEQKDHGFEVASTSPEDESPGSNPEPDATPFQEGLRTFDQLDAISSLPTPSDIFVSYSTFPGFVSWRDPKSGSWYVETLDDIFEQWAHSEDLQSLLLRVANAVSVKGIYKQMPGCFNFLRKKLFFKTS

Serine protease HTRA1 [4] = biological target: T1, Serine protease HTRA1; test: Inhibition of HTRA1 (unknown origin) assessed as residual activity at 1 uM relative to control

T1 sequence (Q92743 whole entry): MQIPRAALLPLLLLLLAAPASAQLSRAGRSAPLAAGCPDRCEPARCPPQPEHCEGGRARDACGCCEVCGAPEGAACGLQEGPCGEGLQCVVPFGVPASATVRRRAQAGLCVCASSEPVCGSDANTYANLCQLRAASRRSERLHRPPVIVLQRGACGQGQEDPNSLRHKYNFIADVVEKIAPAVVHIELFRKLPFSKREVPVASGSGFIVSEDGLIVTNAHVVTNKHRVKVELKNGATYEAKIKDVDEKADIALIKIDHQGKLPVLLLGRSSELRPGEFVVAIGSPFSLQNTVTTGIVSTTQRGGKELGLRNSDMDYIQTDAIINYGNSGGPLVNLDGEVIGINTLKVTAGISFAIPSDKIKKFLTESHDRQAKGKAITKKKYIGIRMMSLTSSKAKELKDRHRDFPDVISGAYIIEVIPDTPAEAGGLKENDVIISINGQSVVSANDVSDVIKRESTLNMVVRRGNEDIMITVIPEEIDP
Sequence of Kallikrein-7 (Homo sapiens) (P49862 30-253 limits assumed): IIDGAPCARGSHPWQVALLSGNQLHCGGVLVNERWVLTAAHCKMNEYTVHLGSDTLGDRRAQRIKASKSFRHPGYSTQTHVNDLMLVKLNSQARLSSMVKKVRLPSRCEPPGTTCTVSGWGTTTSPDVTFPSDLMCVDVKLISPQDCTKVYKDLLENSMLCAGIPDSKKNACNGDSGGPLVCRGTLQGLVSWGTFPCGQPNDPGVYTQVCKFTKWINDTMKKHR

CC(C)C[C@H](NC(=O)[C@H](Cc1cc[n+]([O-])cc1)NC(=O)OCc1ccccc1)C(=O)N[C@H](B(O)O)C(C)C
IC50 (Serine protease HTRA1 [1]): 1540 nM

CC(C)C[C@H](NC(=O)[C@H](Cc1cccc(F)c1)NC(=O)OCc1ccccc1)C(=O)N[C@H](B(O)O)C(C)C
IC50 (Serine protease HTRA1 [1]): 88 nM

CCCCC[C@H](NC(=O)OCc1ccccc1)C(=O)N[C@@H](CC(C)C)C(=O)N[C@H](B(O)O)C(C)C
IC50 (Serine protease HTRA1 [1]): 1920 nM

CC(C)C[C@H](NC(=O)[C@H](Cc1cccc(Cl)c1)NC(=O)C(C)(C)Cc1ccccc1)C(=O)N[C@H](B(O)O)C1CCC1
IC50 (Serine protease HTRA1 [1]): 13 nM
inhibition [2]: inactive
inhibition [3]: inactive
inhibition (Caspase-6 (Homo sapiens)): inactive
inhibition (Caspase-9 (Homo sapiens)): inactive
Activity (Serine protease HTRA1 [4]): 0%

CC(C)C[C@H](NC(=O)[C@H](Cc1cccc(Br)c1)NC(=O)OCc1ccccc1)C(=O)N[C@H](B(O)O)C(C)C
IC50 (Serine protease HTRA1 [1]): 17 nM

CC(C)C[C@H](NC(=O)[C@H](Cc1cccc(Cl)c1)NC(=O)C(C)(C)Cc1ccccc1)C(=O)N[C@H](B(O)O)C(C)C
IC50 (Serine protease HTRA1 [1]): 11 nM

CC(C)C[C@H](NC(=O)[C@H](CC1CCCCC1)NC(=O)OCc1ccccc1)C(=O)N[C@H](B(O)O)C(C)C
IC50 (Serine protease HTRA1 [1]): 466 nM

CC(C)C[C@H](NC(=O)[C@H](Cc1ccccc1)NC(=O)OCc1ccccc1)C(=O)N[C@H](B(O)O)C(C)C
IC50 (Serine protease HTRA1 [1]): 411 nM

Cc1cccc(C[C@H](NC(=O)OCc2ccccc2)C(=O)N[C@@H](CC(C)C)C(=O)N[C@H](B(O)O)C(C)C)c1
IC50 (Serine protease HTRA1 [1]): 45 nM

CC(C)C[C@H](NC(=O)[C@H](Cc1ccc(Cl)cc1)NC(=O)OCc1ccccc1)C(=O)N[C@H](B(O)O)C(C)C
IC50 (Serine protease HTRA1 [1]): 73 nM

CSCCC[C@H](NC(=O)[C@@H]1CCCN1C(=O)[C@@H](N)CC(=O)O)C(=O)N[C@@H](Cc1ccccc1)C(=O)N[C@@H](CCCCN)C(=O)N[C@@H](CC(C)C)C(=O)N[C@H](B(O)O)C(C)C (H-DP[hMet]FKL-X1)
IC50 (Serine protease HTRA1 [1]): 2600 nM

CC(C)C[C@H](NC(=O)[C@H](Cc1cccc(Cl)c1)NCCCc1ccccc1)C(=O)N[C@H](B(O)O)C(C)C
IC50 (Serine protease HTRA1 [1]): 4900 nM

CC(C)C[C@H](NC(=O)[C@H](Cc1ccc[n+]([O-])c1)NC(=O)OCc1ccccc1)C(=O)N[C@H](B(O)O)C(C)C
IC50 (Serine protease HTRA1 [1]): 654 nM

CC(C)C[C@H](NC(=O)[C@H](Cc1cccc(Cl)c1)NC(=O)NCc1ccccc1)C(=O)N[C@H](B(O)O)C(C)C
IC50 (Serine protease HTRA1 [1]): 495 nM

CC(C)C[C@H](NC(=O)[C@H](CCCCN)NC(=O)OCc1ccccc1)C(=O)N[C@H](B(O)O)C(C)C
IC50 (Serine protease HTRA1 [1]): 15300 nM

CC(C)C[C@H](NC(=O)[C@H](Cc1cccc(Cl)c1)NC(=O)CCc1ccccc1)C(=O)N[C@H](B(O)O)C(C)C
IC50 (Serine protease HTRA1 [1]): 104 nM

CC(C)C[C@H](NC(=O)[C@H](Cc1cccc(Cl)c1)NC(=O)OCc1ccccc1)C(=O)N[C@H](B(O)O)C(C)C
IC50 (Serine protease HTRA1 [1]): 10 nM
inhibition [2]: inactive
inhibition [3]: inactive
inhibition (Caspase-6 (Homo sapiens)): inactive
inhibition (Caspase-9 (Homo sapiens)): inactive
Activity (Serine protease HTRA1 [4]): 0%
